Reference: PubChem BioAssay AID1259408 (Genetic Toxicology Data Bank (GENE-TOX), 2018)
Active and inactive are the calls of the source. No rule for the calls is given here.

System: GENE-TOX genotoxicity assays, various organisms and cells
Test: GENE-TOX mutagenicity studies
Details: for call: Assay Type: In vivo carcinogenicity studies, Assay Code: CCG+L
[1] = Species/Cell Type: Drosophila melanogaster, Assay Type: Sex-linked recessive lethal gene mutation, Assay Code: SRLT, Evaluation Type: Evaluation A (Pre-1980)
[2] = Species/Cell Type: Nonhuman, Assay Type: Sister-chromatid exchange (SCE) in vitro, Assay Code: SC2+D, Dose Response: With dose response, Evaluation Type: Evaluation B (Post-1980)
[3] = Species/Cell Type: Nonhuman, Evaluation Type: Evaluation A (Pre-1980)
[4] = Species/Cell Type: Salmonella typhimurium (one or more of the five standard strains: TA98, TA100, TA1535, TA1537, and TA1538), Assay Type: Histidine reverse gene mutation, Ames assay, Assay Code: SALT, Evaluation Type: Evaluation A (Pre-1980)

With `COc1c(Cl)ccc(Cl)c1C(=O)O` the mutagenic call (Species/Cell Type: Bacillus subtilis (H17 vs M45), Assay Type: Rec-assay, spot test, DNA effects (bacterial DNA repair), Assay Code: REW+, Evaluation Type: Evaluation A (Pre-1980)) was “active; positive”, the mutagenic call [1] was “no conclusion” and the mutagenic call (Species/Cell Type: Escherichia coli polA (W3119 vs P3478), Assay Type: Rec-assay, DNA effects (bacterial DNA repair), Assay Code: RE1+, Evaluation Type: Evaluation A (Pre-1980)) was “active; positive”. For the same molecule, the mutagenic call (Species/Cell Type: Hordeum vulgare (barley), Assay Type: Chromosome aberrations, Assay Code: HOC+, Evaluation Type: Evaluation A (Pre-1980)) was “active; positive”, the mutagenic call (Species/Cell Type: Human diploid fibroblasts, Assay Type: Unscheduled DNA synthesis (UDS) in vitro, DNA effects, Assay Code: UDH-, Evaluation Type: Evaluation A (Pre-1980)) was “inactive; negative” and the mutagenic call (Species/Cell Type: Saccharomyces cerevisiae, Assay Type: Mitotic recombination or gene conversion, Assay Code: YEH-, Evaluation Type: Evaluation A (Pre-1980)) was “inactive; negative”. For the same molecule, the mutagenic call (Species/Cell Type: Salmonella typhimurium (one or more of the five standard strains: TA98, TA100, TA1535, TA1537, and TA1538), Assay Type: Histidine reverse gene mutation, Ames assay, Assay Code: SAL-, Evaluation Type: Evaluation A (Pre-1980)) was “inactive; negative”.
For `c1ccc2c(c1)-c1ccccc1C1OC21` (centres undefined), the mutagenic call (Species/Cell Type: Mouse prostate cells, Assay Type: Cell transformation, Assay Code: CTM-, Evaluation Type: Evaluation A (Pre-1980)) was “inactive; negative” and the mutagenic call (Species/Cell Type: Syrian hamster embryo (SHE) cells, Assay Type: Cell transformation, clonal assay, Assay Code: CTC+, Evaluation Type: Evaluation A (Pre-1980)) was “active; positive”.
For `O[C@@H]1[C@@H]2O[C@@H]2c2cc3ccc4cccc5ccc(c2[C@H]1O)c3c45`, the mutagenic call (Species/Cell Type: Chinese hamster lung (V79) cells, Assay Type: Forward gene mutation at the HPRT or ouabain locus, Assay Code: V79+, Evaluation Type: Evaluation A (Pre-1980)) was “active; positive” and the mutagenic call [2] was “active; positive”.
`Clc1ccc(C(c2ccc(Cl)cc2)C(Cl)Cl)cc1` was tested, and the mutagenic call [1] was “no conclusion”, the mutagenic call (Species/Cell Type: Escherichia coli polA (W3119 vs P3478), Assay Type: Rec-assay, DNA effects (bacterial DNA repair), Assay Code: RE1T, Evaluation Type: Evaluation A (Pre-1980)) was “no conclusion” and the mutagenic call (Species/Cell Type: Nonhuman, Assay Type: Chromosome aberrations in vitro, Assay Code: CY&+, Evaluation Type: Evaluation A (Pre-1980)) was “active; positive”. For the same molecule, the mutagenic call (Species/Cell Type: Serratia marcesens, Assay Type: Reverse gene mutation, host-mediated assay, Assay Code: HMC+, Evaluation Type: Evaluation A (Pre-1980)) was “active; positive”.
In the case of `c1ccc2c(c1)-c1cccc3cccc-2c13`, the mutagenic call (Species/Cell Type: Chinese hamster ovary (CHO) cells, Assay Type: Forward gene mutation at the HPRT locus, Assay Code: CHO+*, Activation: With metabolic activation, Evaluation Type: Evaluation B (Post-1980)) is reported as “active; positive”, the mutagenic call (Species/Cell Type: Fischer rat embryo (RLV/1706) cells, Assay Type: Cell transformation, viral enhanced, Assay Code: CTRT, Evaluation Type: Evaluation A (Pre-1980)) is reported as “no conclusion” and the mutagenic call [2] is reported as “active; positive”. The mutagenic call (Species/Cell Type: Nonhuman, Assay Type: Sister-chromatid exchange (SCE) in vivo, Assay Code: SC3-, Evaluation Type: Evaluation B (Post-1980)) was “inactive; negative”.
`C/C=C1\C[C@H]2[C@@H](OC)Nc3cc(O)c(OC)cc3C(=O)N2C1` was tested, and the mutagenic call (Species/Cell Type: Mammalian polychromatic erythrocytes, Assay Type: Micronucleus test, chromosome aberrations, Assay Code: MNTT, Evaluation Type: Evaluation B (Post-1980)) was “no conclusion”.
With `Cc1c2ccccc2c(CO)c2ccc3c(c12)C=C[C@@H](O)[C@@H]3O` the call [3] was “active; positive”.
With `CC1CC(C)CN(N=O)C1` (centres undefined) the mutagenic call (Species/Cell Type: Drosophila melanogaster, Assay Type: Sex-linked recessive lethal gene mutation, Assay Code: SRL+, Evaluation Type: Evaluation A (Pre-1980)) was “active; positive”, the mutagenic call (Species/Cell Type: Saccharomyces cerevisiae, Assay Type: Forward gene mutation, Assay Code: YEF+*, Activation: With metabolic activation, Evaluation Type: Evaluation A (Pre-1980)) was “active; positive” and the mutagenic call (Species/Cell Type: Saccharomyces cerevisiae, Assay Type: Reverse gene mutation, Assay Code: YER+*, Activation: With metabolic activation, Evaluation Type: Evaluation A (Pre-1980)) was “active; positive”. The mutagenic call [4] was “no conclusion”.
With `CCCCCCCC(=O)N(C)N=O` the mutagenic call (Species/Cell Type: Saccharomyces cerevisiae, Assay Type: Mitotic recombination or gene conversion, Assay Code: YEH+, Evaluation Type: Evaluation A (Pre-1980)) was “active; positive”.
In the case of `CN1CCC(=C2c3ccccc3C3OC3c3ccccc32)CC1` (centres undefined), the mutagenic call [4] is reported as “no conclusion”.
In the case of `CCc1ccccc1`, the mutagenic call (Species/Cell Type: Human lymphocytes, Assay Type: Sister-chromatid exchange (SCE) in vitro, Assay Code: SCL+, Evaluation Type: Evaluation B (Post-1980)) is reported as “active; positive”, the mutagenic call (Species/Cell Type: Human, Assay Type: Sister-chromatid exchange (SCE) in vitro, Assay Code: SC1+, Evaluation Type: Evaluation B (Post-1980)) is reported as “active; positive” and the mutagenic call (Species/Cell Type: Syrian hamster embryo (SA7/SHE) cells, Assay Type: Cell transformation, viral enhanced, Assay Code: CT7-, Evaluation Type: Evaluation A (Pre-1980)) is reported as “inactive; negative”.
`ClC1C(Cl)C(Cl)C(Cl)C(Cl)C1Cl` (centres undefined) was tested, and the mutagenic call (Species/Cell Type: Allium cepa, Assay Type: Chromosome aberrations, Assay Code: ALC+D, Dose Response: With dose response, Evaluation Type: Evaluation A (Pre-1980)) was “active; positive”, the mutagenic call [1] was “no conclusion” and the mutagenic call (Species/Cell Type: Hordeum vulgare (barley), Assay Type: Chromosome aberrations, Assay Code: HOC+D, Dose Response: With dose response, Evaluation Type: Evaluation A (Pre-1980)) was “active; positive”. The call [3] was “active; positive”, the mutagenic call (Species/Cell Type: Saccharomyces cerevisiae, Assay Type: Mitotic recombination or gene conversion, Assay Code: YEC+, Evaluation Type: Evaluation A (Pre-1980)) was “active; positive” and the mutagenic call (Species/Cell Type: Saccharomyces cerevisiae, Assay Type: Reverse gene mutation, Assay Code: YER-*, Activation: With metabolic activation, Evaluation Type: Evaluation A (Pre-1980)) was “inactive; negative”. For the same molecule, the mutagenic call (Species/Cell Type: Salmonella typhimurium, Serratia marcesens, Assay Type: Forward and reverse gene mutation, host-mediated assay, Assay Code: HM2T, Evaluation Type: Evaluation A (Pre-1980)) was “no conclusion”, the mutagenic call (Species/Cell Type: Tradescantia species, Assay Type: Chromosome aberrations, Assay Code: TRC+D, Dose Response: With dose response, Evaluation Type: Evaluation A (Pre-1980)) was “active; positive” and the mutagenic call (Species/Cell Type: Vicia faba, Assay Type: Chromosome aberrations, Assay Code: VIC+D, Dose Response: With dose response, Evaluation Type: Evaluation A (Pre-1980)) was “active; positive”.
